For 16 compounds, remaining activity and IC50 results are on record in patent US20230183218A1, “CONDENSED SUBSTITUTED HYDROPYRROLES AS ANTAGONISTS OF THE MUSCARINIC ACETYLCHOLINE RECEPTOR M4” (Vanderbilt University, priority 2020, published 2023).

One assay addresses T1, Human M4 (Homo sapiens, UniProt P08173).
T1 construct: expressed in transfected cells; host or cells: CHO-K1 (ATCC), stably co-expressing chimeric G protein Gqi5
T1 sequence (P08173 1-479): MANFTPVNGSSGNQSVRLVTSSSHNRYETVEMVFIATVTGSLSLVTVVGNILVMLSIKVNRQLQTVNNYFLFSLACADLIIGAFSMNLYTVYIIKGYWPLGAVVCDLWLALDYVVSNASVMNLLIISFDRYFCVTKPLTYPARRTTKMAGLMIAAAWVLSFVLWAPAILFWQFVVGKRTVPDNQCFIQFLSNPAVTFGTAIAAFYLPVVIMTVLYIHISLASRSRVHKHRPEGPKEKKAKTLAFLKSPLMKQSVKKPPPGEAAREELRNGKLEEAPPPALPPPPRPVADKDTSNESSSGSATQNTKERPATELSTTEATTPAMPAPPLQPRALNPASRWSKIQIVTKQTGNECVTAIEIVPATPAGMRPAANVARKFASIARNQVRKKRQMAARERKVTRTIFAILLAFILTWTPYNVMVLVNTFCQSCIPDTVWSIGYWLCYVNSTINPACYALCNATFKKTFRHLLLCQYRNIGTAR
In words: mAChR M4 cell-based functional assay (calcium flux, antagonist mode vs EC80 acetylcholine), human M4/Gqi5/CHO-K1 cells. Conditions: for remaining activity at 30 µM: CHO-K1, % ACh maximum at 30 μM, human M4, read-out: Human M4 Emin (%); for IC50: decrease of response elicited by EC80 acetylcholine, human M4/Gqi5 CHO-K1 cells. The gist of the method:
(§1)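 CHO-K1 cells stably expressing human or rat M4 with Gqi5, Fluo-4 loaded; calcium measured by fluorescence ratio on FDSS. Compound added, then EC20 acetylcholine at 143 s and EC80 at 268 s; IC50 from decrease of EC80 response, four-parameter logistic fit.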
On the technique in general: Calcium assays in cells follow changes in intracellular calcium, usually with a dye or a luminescent sensor.

Another assay has as its target T2, Rat M4 (Rattus norvegicus, UniProt P08485).
T2 construct: expressed in transfected cells; host or cells: CHO-K1 (ATCC), stably co-expressing chimeric G protein Gqi5
T2 sequence (P08485 1-478): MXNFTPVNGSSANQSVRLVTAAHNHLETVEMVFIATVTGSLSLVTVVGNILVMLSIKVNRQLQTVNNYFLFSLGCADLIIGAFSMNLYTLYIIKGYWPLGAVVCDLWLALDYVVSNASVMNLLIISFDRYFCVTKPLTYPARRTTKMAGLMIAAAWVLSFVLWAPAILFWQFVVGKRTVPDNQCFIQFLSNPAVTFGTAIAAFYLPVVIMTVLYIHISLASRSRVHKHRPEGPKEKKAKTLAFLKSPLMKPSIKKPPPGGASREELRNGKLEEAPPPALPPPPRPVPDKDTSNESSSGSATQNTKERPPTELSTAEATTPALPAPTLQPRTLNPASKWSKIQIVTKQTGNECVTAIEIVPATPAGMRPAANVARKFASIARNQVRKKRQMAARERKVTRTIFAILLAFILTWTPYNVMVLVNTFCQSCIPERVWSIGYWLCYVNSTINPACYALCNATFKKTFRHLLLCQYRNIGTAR
In words: mAChR M4 cell-based functional assay (calcium flux, antagonist mode vs EC80 acetylcholine), rat M4/Gqi5/CHO-K1 cells. Conditions: for remaining activity at 30 µM: CHO-K1, % ACh maximum at 30 μM, rat M4, read-out: Rat M4 Emin (%); for IC50: decrease of response elicited by EC80 acetylcholine, rat M4/Gqi5 CHO-K1 cells. A digest of the protocol:
as §1

Molecules are shown by their SMILES.

On to `Cc1cc(CN2C[C@H]3C[C@H](Nc4ccc(S(=O)(=O)C5CCCCC5)nn4)C[C@H]3C2)ccc1F` [compound 38, (3aR,5s,6aS)-N-(6-(cyclohexylsulfonyl)pyridazin-3-yl)-2-(4-fluoro-3-methylbenzyl)octahydrocyclopenta[c]pyrrol-5-amine], for which the remaining activity at 30 µM on Human M4 turned out to be 4%; on Rat M4, 3%. For the same compound, the half-maximal inhibitory concentration (IC50) at Human M4 was 188 nM; at Rat M4, 591 nM.
On the same counts, the results for `O=S(=O)(c1ccccc1)c1nnc(N[C@H]2C[C@@H]3CN(CC4CCOCC4)C[C@@H]3C2)cc1NC1CC1` [compound 39, N^5-cyclopropyl-6-(phenylsulfonyl)-N^3-((3aR,5s,6aS)-2-((tetrahydro-2H-pyran-4-yl)methyl)octahydrocyclopenta[c]pyrrol-5-yl)pyridazine-3,5-diamine] are 4%, 4%, 70.7 nM and 288 nM.
Consider `Cc1cccnc1CN1C[C@H]2C[C@H](Nc3ccc(S(=O)(=O)c4ccccc4)nn3)C[C@H]2C1` [compound 40, (3aR,5s,6aS)-2-((3-methylpyridin-2-yl)methyl)-N-(6-(phenylsulfonyl)pyridazin-3-yl)octahydrocyclopenta[c]pyrrol-5-amine], for which the remaining activity at 30 µM was found to be 5% at Human M4 and 15% at Rat M4. Further, the half-inhibitory concentration (IC50) at Human M4 was found to be 221 nM; on Rat M4 it was 2890 nM.
For `O=S(=O)(c1ccccc1)c1ccc(N[C@H]2C[C@@H]3CN(Cc4ncccc4C(F)(F)F)C[C@@H]3C2)nn1` [compound 41, (3aR,5s,6aS)-N-(6-(phenylsulfonyl)pyridazin-3-yl)-2-((3-(trifluoromethyl)pyridin-2-yl)methyl)octahydrocyclopenta[c]pyrrol-5-amine], the remaining activity at 30 µM on Human M4 stood at 6%; on Rat M4 it was 20%. Besides, the half-inhibitory concentration (IC50) at Human M4 worked out at 742 nM; on Rat M4, 5780 nM.
For `Cc1cc2c(cc1CN1C[C@H]3C[C@H](Nc4ccc(S(=O)(=O)c5ccccc5)nn4)C[C@H]3C1)OCO2` [compound 42, (3aR,5s,6aS)-2-((6-methylbenzo[d][1,3]dioxol-5-yl)methyl)-N-(6-(phenylsulfonyl)pyridazin-3-yl)octahydrocyclopenta[c]pyrrol-5-amine] the same measures were 3%, 14%, 1000 nM and 3110 nM.
On the same counts, the results for `Cc1cccnc1CN1C[C@H]2C[C@H](Nc3ccc(S(=O)(=O)C4CCCCC4)nn3)C[C@H]2C1` [compound 43, (3aR,5s,6aS)-N-(6-(cyclohexylsulfonyl)pyridazin-3-yl)-2-((3-methylpyridin-2-yl)methyl)octahydrocyclopenta[c]pyrrol-5-amine] are 5%, 11%, 76.3 nM and 1260 nM.
On the same counts, the results for `Cc1cc2c(cc1CN1C[C@H]3C[C@H](Nc4ccc(S(=O)(=O)C5CCCCC5)nn4)C[C@H]3C1)OCO2` [compound 44, (3aR,5s,6aS)-N-(6-(cyclohexylsulfonyl)pyridazin-3-yl)-2-((6-methylbenzo[d][1,3]dioxol-5-yl)methyl)octahydrocyclopenta[c]pyrrol-5-amine] are 3%, 6%, 720 nM and 2050 nM.
On to `Cc1cc(Br)cnc1CN1C[C@H]2C[C@H](Nc3ccc(S(=O)(=O)C4CCCCC4)nn3)C[C@H]2C1` [compound 45, (3aR,5s,6aS)-2-((5-bromo-3-methylpyridin-2-yl)methyl)-N-(6-(cyclohexylsulfonyl)pyridazin-3-yl)octahydrocyclopenta[c]pyrrol-5-amine], for which, at Human M4, the remaining activity at 30 µM came to 4% and the IC50 came to 20.3 nM. Moreover, at Rat M4, the remaining activity at 30 µM came out at 3% and the half-inhibitory concentration (IC50) worked out at 292 nM.
With `O=S(=O)(c1ccc(N[C@H]2C[C@@H]3CN(CC4(O)CCOCC4)C[C@@H]3C2)nn1)C1CCCCC1` [compound 46, 4-(((3aR,5s,6aS)-5-((6-(cyclohexylsulfonyl)pyridazin-3-yl)amino)hexahydrocyclopenta[c]pyrrol-2(1H)-yl)methyl)tetrahydro-2H-pyran-4-ol], on Human M4, the remaining activity at 30 µM was determined as 9% and the IC50 turned out to be 1230 nM. Further, at Rat M4, the remaining activity at 30 µM is 27% and the half-maximal inhibitory concentration (IC50) was greater than 10000 nM.
For `O=S(=O)(c1ccc(N[C@H]2C[C@@H]3CN(Cc4ccc5[nH]ccc5c4)C[C@@H]3C2)nn1)C1CCCCC1` [compound 47, (3aR,5s,6aS)-2-((1H-indol-5-yl)methyl)-N-(6-(cyclohexylsulfonyl)pyridazin-3-yl)octahydrocyclopenta[c]pyrrol-5-amine] the same measures were 4%, 116 nM, 9% and 1570 nM.
On the same counts, the results for `O=S(=O)(c1ccc(N[C@H]2C[C@@H]3CN(Cc4ccc5cc[nH]c5c4)C[C@@H]3C2)nn1)C1CCCCC1` [compound 48, (3aR,5s,6aS)-2-((1H-indol-6-yl)methyl)-N-(6-(cyclohexylsulfonyl)pyridazin-3-yl)octahydrocyclopenta[c]pyrrol-5-amine] are 3%, 183 nM, 9% and 4540 nM.
For `CC(C)(C)CCN1C[C@H]2C[C@H](Nc3ccc(S(=O)(=O)C4CCCCC4)nn3)C[C@H]2C1` [compound 49, (3aR,5s,6aS)-N-(6-(cyclohexylsulfonyl)pyridazin-3-yl)-2-(3,3-dimethylbutyl)octahydrocyclopenta[c]pyrrol-5-amine], the values for the remaining activity at 30 µM on Human M4 and on Rat M4 were 3% and 4%, respectively. In addition, the results for the half-inhibitory concentration (IC50) at Human M4 and on Rat M4 were 5.75 nM and 63.8 nM, respectively.
On the same counts, the results for `CC(C)(C)CCN1C[C@H]2C[C@H](Nc3ccc(S(=O)(=O)c4ccccc4)nn3)C[C@H]2C1` [compound 50, (3aR, 5s,6aS)-2-(3,3-dimethylbutyl)-N-(6-(phenylsulfonyl)pyridazin-3-yl)octahydrocyclopenta[c]pyrrol-5-amine] are 3%, 4%, 18 nM and 130 nM.
Regarding `CC1(C)CC(N2C[C@H]3C[C@H](Nc4ccc(Cl)nn4)C[C@H]3C2)CCO1` (stereo partly drawn) [compound 51, (3aR,5s,6aS)-N-(6-chloropyridazin-3-yl)-2-(2,2-dimethyltetrahydro-2H-pyran-4-yl)octahydrocyclopenta[c]pyrrol-5-amine], on Human M4, the remaining activity at 30 µM turned out to be 9% and the IC50 was 8560 nM. Moreover, at Rat M4, the remaining activity at 30 µM is 38% and the concentration for half-maximal inhibition (IC50) is greater than 10000 nM.
On the same counts, the results for `CC1(C)CC(N2C[C@H]3C[C@H](Nc4ccc(-c5ccccc5F)nn4)C[C@H]3C2)CCO1` (stereo partly drawn) [compound 52, (3aR,5s,6aS)-2-(2,2-dimethyltetrahydro-2H-pyran-4-yl)-N-(6-(2-fluorophenyl)pyridazin-3-yl)octahydrocyclopenta[c]pyrrol-5-amine] are 3%, 12.1 nM, 6% and 776 nM.
On the same counts, the results for `CC1(C)CC(N2C[C@H]3C[C@H](Nc4ccc(-c5cccc(F)c5)nn4)C[C@H]3C2)CCO1` (stereo partly drawn) [compound 53, (3aR,5s,6aS)-2-(2,2-dimethyltetrahydro-2H-pyran-4-yl)-N-(6-(3-fluorophenyl)pyridazin-3-yl)octahydrocyclopenta[c]pyrrol-5-amine] are 3%, 9.28 nM, 5% and 295 nM.

What is called IC50 is the concentration that gives 50% inhibition.
